The results in this text go back to patent EP1840211A1, “Pyranosone dehydratase from phanerochaete chrysosporium” (DANISCO A/S, priority 2001, dated 2003).

In one assay the test system is B. Pumilus DS96.734. Briefly: Similar growth tests with other microorganisms (Example 4). It is filed as cell-based. The protocol: (§1) In each case, microthecin was dissolved in water and placed in wells in the periphery. An agar block containing the pathogen was placed in the centre. The pathogens were allowed to grow out on the PDA-agar plates for 3-5 days.
A further assay relates to P. fluorescens DS96.578. The assay is described as above. The class given is cell-based. The protocol:
as §1

A further assay relates to B. megaterium DS98.124. Described as above. It is filed as cell-based. As for the experimental part:
as §1

Another assay deals with Cercospora. Described as above. The class given is cell-based. The protocol: as §1
The test system of the next assay is P. mendocina DS98.124. The assay is described as above. The class given is cell-based. As for the experimental part:
as §1

Assay [1] relates to Aphanomyces cochlioides. The assay is described as follows: Screening for growth inhibition on agar-plates (Example 4). As to conditions: very low concentrations; in wells on PDA-agar plates, 3-5 days. It is filed as cell-based. As for the experimental part: The effect of microthecin on the plant pathogenic fungi Pythium ultimum, Rhizoctonia solani and Aphanomyces cochlioides in vitro was investigated by screening for growth inhibition of the pathogens on agar-plates (Figures 6, 7, 8).
as §1

A further assay has as its system Cercospora beticola. Briefly: Agar plate inhibition zone test (PDA medium). The class given is cell-based. The following applies: judged after 3-4 weeks of growth, read-out: minimum inhibition concentration (mic). The protocol: (§2) A circular plug (diameter 10 mm) of fresh mycelium was placed at the centre on a petri-dish (diameter 9 cm) containing PDA medium. (PDA= Potato dextrose agar Difco no. 213400). Wells with a diameter of 5 mm were cut along the periphery of the agar plate. In each well were placed 50 µl of a test solution. Alternatively, 20 µl of each test solution were placed directly on the agar along the periphery of the plate. Also, 50µl of each test solution were placed directly on top of the fungal mycelium plug.
(§3) The agar plates were placed at room temperature in daylight, but protected from direct sunlight.
(§4) The reaction (inhibition zones) of the fungi to the test substance was judged as follows: Rhizoctonia solani: after 2-3 days of growth Pythium ultimum: after 1-2 days of growth Aphanomyces cochlioides: after 3-4 days of growth Cercospora beticola after 3-4 weeks of growth

The next assay has as its system Pythium ultimum. The assay is described as follows: Agar plate inhibition zone test (PDA medium). It is filed as cell-based. As to conditions: Globisporangium ultimum; judged after 1-2 days of growth; read-out: minimum inhibition concentration (mic). The protocol:
as §2, §3, §4

Assay [2] deals with Aphanomyces cochlioides. Briefly: Agar plate inhibition zone test (PDA medium). It is filed as cell-based. The following applies: judged after 3-4 days of growth, read-out: minimum inhibition concentration (mic). The protocol:
as §2, §3, §4

A further assay concerns Rhizoctonia solani. The assay is described as follows: Agar plate inhibition zone test (PDA medium). As to conditions: judged after 2-3 days of growth, read-out: minimum inhibition concentration (mic). It is filed as cell-based. The protocol:
as §2, §3, §4

The test system of the next assay is Aphanomyces. Briefly: Field emergence trial (Trial FEHCP034 Aphanomyces). The class given is in vivo, sugar beet. The following applies: pellets containing the substance, result in words. From the text: Based on these findings, the efficiency of microthecin was further investigated in a field emergence trial. The trial was sown relatively late giving it a higher chance for presence of the pathogen Aphanomyces in the trial field.
Seeds were pelleted with standard P1 pelleting mass with (1,2) or without (7,8)Thiram.
Inner coating: 0,3gai/U microthecin as a 0,5% solution in water or 14,7gai/U Hymexazol. 60gai/U Imidacloprid. Standard metallic green seed cover film.
The following combinations were included in the trial: R F0 Without fungicides R FT With Thiram (in pellet) R FH With Hymexazol R FM With Microthecin R P1 STD With Thiram (in pellet) + Hymexazol R FTM With Thiram (in pellet) + Microthecin Trial place Bukkehave, DK. (4 reps, 200 seeds/plot) Trial sown 21.05.2002 1. Count 28.05.2002 (speed) 2. Count 29.05.2002 (speed) 3. Count 24.06.2002 (final)

The next assay concerns sugar beet seeds. Briefly: Laboratory germination of pelleted sugar beet seeds. It is filed as in vivo. As to conditions: result in words.
In assay [3] the target is T1, pyranosone dehydratase (PD) (Phanerodontia chrysosporium, UniProt P84193).
T1 construct: from tissue; host or cells: Phanerochaete chrysosporium (enzyme purified from the fungus' cell-free extract)
T1 sequence (P84193 8-900 limits assumed): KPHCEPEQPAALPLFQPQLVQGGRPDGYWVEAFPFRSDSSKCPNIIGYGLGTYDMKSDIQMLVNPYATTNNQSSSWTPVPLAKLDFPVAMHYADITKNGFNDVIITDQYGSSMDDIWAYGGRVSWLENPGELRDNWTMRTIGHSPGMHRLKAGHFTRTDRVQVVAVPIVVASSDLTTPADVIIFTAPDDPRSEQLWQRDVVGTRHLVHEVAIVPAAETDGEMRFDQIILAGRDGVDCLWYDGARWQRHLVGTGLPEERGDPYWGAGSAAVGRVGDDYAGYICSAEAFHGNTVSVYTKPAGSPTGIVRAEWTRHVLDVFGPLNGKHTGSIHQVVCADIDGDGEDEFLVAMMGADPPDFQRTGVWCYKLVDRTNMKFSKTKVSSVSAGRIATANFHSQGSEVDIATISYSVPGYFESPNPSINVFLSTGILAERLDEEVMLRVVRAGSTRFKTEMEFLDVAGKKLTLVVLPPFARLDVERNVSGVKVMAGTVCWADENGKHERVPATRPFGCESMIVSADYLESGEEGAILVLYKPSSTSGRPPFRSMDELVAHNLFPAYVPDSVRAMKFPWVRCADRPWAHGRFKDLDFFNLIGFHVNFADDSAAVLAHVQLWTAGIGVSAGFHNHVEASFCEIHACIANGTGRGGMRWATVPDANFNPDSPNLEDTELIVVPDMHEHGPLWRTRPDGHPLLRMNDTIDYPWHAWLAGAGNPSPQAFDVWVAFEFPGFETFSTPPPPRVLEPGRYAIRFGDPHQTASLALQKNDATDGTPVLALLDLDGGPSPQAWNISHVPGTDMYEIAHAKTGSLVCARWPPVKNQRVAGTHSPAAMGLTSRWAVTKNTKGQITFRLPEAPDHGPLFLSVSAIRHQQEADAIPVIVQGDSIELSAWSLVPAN
Briefly: Conversion of AF or glucosone by PD, monitored at 226nm. The class given is biochemical, Phanerochaete chrysosporium. As to conditions: for OD226nm: 22°C, 5.5 hours. The protocol:
The reaction system consisted of AF or glucosone 1-15µl, 25µl sodium phosphate buffer (6.5. 0.1M), water, 1.4µl PD to a final volume of 200µl. The reaction was performed at 22°C for 5.5 hours. The formation of microthecin from AF and cortalcerone from glucosone were monitorered at 226nm.

The mark [4] stands for this setting: final substrate concentration 13.7 µg/ml reaction mixture.
Setting [5] is: final substrate concentration 27.4 µg/ml reaction mixture.
Where [6] appears, read: final substrate concentration 41.1 µg/ml reaction mixture.
[7] abbreviates: final substrate concentration 68.4 µg/ml reaction mixture.
Where [8] appears, read: final substrate concentration 95.8 µg/ml reaction mixture.
Where [9] appears, read: final substrate concentration 137 µg/ml reaction mixture.
Where [10] appears, read: final substrate concentration 205 µg/ml reaction mixture.

In brackets after ≈: the same amount, converted by molar mass.

Consider `O=C1C=CCOC1(O)CO` (stereo not drawn) [microthecin], for which the “effect on the growth” value in the assay with B. Pumilus DS96.734 and in the assay with B. megaterium DS98.124 was “no effect” each time. Also, the effect on growth entry in the assay on P. fluorescens DS96.578 and with P. mendocina DS98.124 was “slightly affected” in each case. For the same compound, in the assay with Cercospora, the “effect on Cercospora” value is on record as “no effect”. The “growth of Aphanomyces” value in the assay on Aphanomyces cochlioides [1] was “able to reduce the growth”. The MIC was determined as 2400 µg/mL (≈ 16.7 mM) in the assay on Cercospora beticola, 480 µg/mL (≈ 3.33 mM) with Pythium ultimum, 1200 µg/mL (≈ 8.33 mM) in the assay on Aphanomyces cochlioides [2] and 240 µg/mL (≈ 1.67 mM) in the assay with Rhizoctonia solani. Further, in the assay on Aphanomyces, the final germination result is listed as “high final germination”. For the same compound, the speed of germination entry with Aphanomyces is reported as “comparable with pellets only containing Thiram”. Also, the “speed of laboratory germination (4d)” value in the assay with sugar beet seeds (inclusion in the pellet) was “decreases the speed of laboratory germination”.

As for `O=CC(=O)[C@@H](O)[C@H](O)[C@H](O)CO` [Glucosone, D-arabino-hexos-2-ulose], the OD226nm is given as 0.069 in assay [3] (setting [4]); 0.104 in assay [3] (setting [5]); 0.141 in [3] (setting [6]); 0.238 in [3] (setting [7]); 0.323 in [3] (setting [8]); 0.484 in assay [3] (setting [9]). In addition, the OD226nm in [3] (setting [10]) stood at 0.634.

As to `O=C1CO[C@H](CO)[C@@H](O)[C@@H]1O` [AF, 1,5-anhydro-D-fructose], the OD226nm in assay [3] (setting [4]) was 0.308; in assay [3] (setting [5]) it was 0.534; in assay [3] (setting [6]), 0.76; in assay [3] (setting [7]), 1.246; in [3] (setting [8]), 1.764; in [3] (setting [9]) it was 2.43. The OD226nm in assay [3] (setting [10]) is on record as 2.943. The “Vmax higher with AF than with glucosone” value in assay [3] (ratio AF vs glucosone as PD substrate) is listed as “around 4.7 times”.

As for `Cc1cc(O)no1` [Hymexazol, reference compound], the speed of germination result in the assay with Aphanomyces is recorded as “relatively slow”. The “4d>15mm germination” value in the assay with sugar beet seeds was “low”.
